Experiment [1] relates to C3H/Hej (H-2Kk) recipient mice. Kind of experiment: Chimerism induction: allogeneic T-depleted BM transplant under non myeloablative conditioning and co-stimulatory blockade. Format: in vivo. The procedure:
C3H/Hen recipient mice were conditioned with busulfan (2×30 mg/Kg) and T cell debulking with […] anti-CD4 and anti-CD8. Post transplant treatment included […] CTLA4/FC, […] anti-CD48, and 0.1 mg FTY720 administered at the indicated time points.
Non myeloablative conditioning and co-stimulatory blockade Protocol: C3H/Hej (H-2K^k) recipient mice were conditioned with 30 mg/kg IV Busulfex on days −3 and −2 following T cell debulking on day −6 with 300 μg anti-CD4 (Bio Express, clone Gk1.5) and anti-CD8 (Bio Express, cone 53.6.72) antibodies. On day 0, 25×10^6 T-depleted BM cells from Balb/c-Nude (H-2D^d) donors were transplanted and subjected to co-stimulation blockade consisting of 200 μg CTLA4/FC (Chimerigen Laboratories), 250 μg anti-CD48 (Bio Express, clone HM 48) and 0.1 mg FTY720 (Novartis) that was administered as follows: CTLA4/FC and anti-CD48 were injected IP on days 0, 2, 4, 6, 21 and 35 while FTY720 was inoculated per OS for 5 days from day 0 to 5 and from day 6 till day 90 twice a week. Chimerism analysis was monitored every 30 days by FACS analysis. […]
Multilineage Chimerism was performed on donor chimera 70 to 163 days post transplant. […] Fluorescence-activated cell sorting (FACS) analysis was performed using a modified Becton Dickinson FACScan.

Experiment [2] has as its system C57BL/6 (Ly-5.2) recipient mice. Kind of experiment: Determination of the minimal myeloablation with busulphan: donor type chimerism after congenic T cell depleted bone marrow transplant. Format: in vivo. An excerpt: Animals: 6-12 week old female mice were used of the following strains: C57BL/6 (B6, recipient, H-2b, Ly-5.2), B6.SJL-Ptprca Pep3b/BoyJ (congenic strain, donor, H-2b, Ly-5.1) Balb/c (donor, H-2d) and C3H/Hen (recipient, H-2k) mice (all purchased from Harlan Laboratories Ltd, Ein Kerem Breeding farm Jerusalem). All mice were housed under specific pathogen free conditions and maintained under conditions approved by the Institutional Animal Care and Use Committee at the Weizmann Institute of Science.
Determination of the minimal myeloablation with Busulphan: Different groups of C57BL/6 (Ly-5.2) recipient mice were conditioned with the following final doses of IV Busulfex (Otsuka America Pharmaceutical, Inc.): 10, 20, 40, 50, 60, 80, and 100 mg/Kg/mouse. The final doses of IV Busulfex were divided in two and administered (IP) on day −2 and −1. On day 0, 25×10^6 T-depleted bone marrow cells isolated from B6.SJL-Ptprca Pep3b/BoyJ (Ly-5.1) donors were transplanted (IV) and the establishment of donor type chimerism was defined 1 and 12 month post transplant in the blood, spleen, and BM by FACS analysis of the congenic donor marker (Ly-5.1). Phenotypic expression analysis of CD8, CD4, CD45/B220 and CD11b markers on the LY-5.1^+ (donor) cells in the spleen and the BM of the donor chimera, was performed 12 month post transplant.
Flow cytometry for chimerism and multilineage analysis: For chimerism analysis, blood mononuclear cells were stained with labeled antibodies specific for Host (H-2K^k-phycoerythrin (PE)) and donor (H-2D^d-fluorescein isothiocyanate (FITC)) MHC class-I antigens. In the congenic model, anti-CD45.2-PE and anti-CD45.1-FITC antibodies were used to distinguish between the host and the donor.
Considering the importance of providing empty niches for successful BM engraftment, the present inventors initially determined the minimal myeloablation with busulphan which induced durable chimerism following infusion of congenic B6-SJL (Ly-5.1) T cell depleted bone marrow (TDBM, 25×10^6) into B6 (Ly-5.2) mice. […] Consequently, the sublethal dose of 60 mg/Kg was selected for further use in all attempts to induce allogeneic chimerism, in conjunction with transient debulking of host lymphocytes by a single infusion of anti-CD4 and anti-CD8 depleting antibodies.

In the case of `CCCCCCCCc1ccc(CCC(N)(CO)CO)cc1.Cl` [FTY720, 2-amino-2-[2-(4-octylphenyl)ethyl]propane-1,3-diol hydrochloride], the “chimerism achieved (in words)” value in experiment [1] (allogeneic megadose TDBM after busulfan 60 mg/Kg plus anti-CD4/anti-CD8 debulking, post transplant treatment) is given as “no chimerism”. For the same compound, the “mice with donor type chimerism (number of mice)” value in experiment [1] (two independent experiments, median follow-up 116 days (range 70 to 163) beyond cessation of immune suppression, for the combination, mice with more than 80% chimerism) was 0 out of 7.

`CS(=O)(=O)OCCCCOS(C)(=O)=O` [busulphan]: the donor type chimerism result is recorded as “above 50%” in experiment [2] (at doses higher than 50 mg/Kg (tested 10 to 100 mg/Kg)); 40±26% in experiment [2] (busulphan 50 mg/Kg, congenic B6-SJL (Ly-5.1) TDBM 25x10^6 into B6 (Ly-5.2) mice); 66±7% in experiment [2] (busulphan 60 mg/Kg, congenic B6-SJL (Ly-5.1) TDBM 25x10^6 into B6 (Ly-5.2) mice); 75±2% in experiment [2] (busulphan 100 mg/Kg, congenic B6-SJL (Ly-5.1) TDBM 25x10^6 into B6 (Ly-5.2) mice).

These data come from patent US20130183322A1, “IMMUNOSUPPRESSIVE DRUG COMBINATION FOR A STABLE AND LONG TERM ENGRAFTMENT” (YEDA RESEARCH AND DEVELOPMENT CO., LTD., priority 2011, published 2013).
